From patent US20250367235A1, “SYSTEMS AND METHODS FOR MODULATING A CELL PHENOTYPE” (XCELL BIOSCIENCES, INC., priority 2019, published 2025)

System: PC-3, a prostate cancer cell line
Assay: PBMC tumor cell killing co-culture with anti-PD-1 antibodies, cell viability by CellTiter Glo
Assay type: cell-based, human
Settings: 1% O2, 2 PSI above ambient pressure vs ambient conditions; antibody 10 ug/ml; PBMCs with PC-3 at effector to target ratio 20:1; 5 days; average of 21 PBMC isolates; FIG. 2
Method: PBMCs were isolated from 21 healthy volunteers. The PBMCs were cultured together with target tumor cells, (PC-3, a prostate cancer cell line), at an effector to target ratio of 20:1. All cells were cultured in RPMI1640 medium supplemented with 10% fetal bovine serum over a 5 day period. PBMCs were not activated with IL-2. Cell viability was measured at the end of the 5 day period by CellTiter Glo Assay (Promega) with 3 or 4 technical replicates. Each of the 21 PBMC isolates, and target cells, was cultured under either ambient conditions, or hypoxic and hyperbaric conditions (1% O2, 2 PSI above ambient pressure), and with or without anti-PD-1 antibodies. The anti-PD-1 antibodies used were Nivolumab and Pembrolizumab (10 ug/ml). Average results across the 21 different PBMC isolates are shown in FIG. 2, with error bars representing the standard error of the mean, and p values were calculated using paired Student's t tests.

| Substance | effect of hypoxic and hyperbaric conditions on efficacy of treatment at activating PBMCs to kill tumor cells |
| --- | --- |
| Nivolumab | did not have a noticeable effect |
| Pembrolizumab | more efficient at activating PBMCs to kill tumor cells |
